Measurements published in PubChem BioAssay (NCI).
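Grown in 96-well plates, cells were treated for 48 hours with each compound at five concentrations. Insufficient inhibition: endpoint recorded as highest concentration tested. At the GI50, growth is halved. At the TGI there is no net growth.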

Assays:
Test in all cases: DTP human tumour cell line panel, 48 h
SF-295 CNS = test system: SF-295 CNS
HOP-92 NSCLC = test system: HOP-92 NSCLC
MDA-N = test system: MDA-N
MDA-MB-231 breast = test system: MDA-MB-231 breast
T-47D breast = test system: T-47D breast
M14 melanoma = test system: M14 melanoma
NCI-H460 lung = test system: NCI-H460 lung
HS 578T breast = test system: HS 578T breast
HCT-15 colon = test system: HCT-15 colon
SR leukemia = test system: SR leukemia
MALME-3M melanoma = test system: MALME-3M melanoma
ACHN renal = test system: ACHN renal
SF-268 CNS = test system: SF-268 CNS
OVCAR-4 ovarian = test system: OVCAR-4 ovarian
COLO 205 colon = test system: COLO 205 colon
PC-3 prostate = test system: PC-3 prostate
UACC-62 melanoma = test system: UACC-62 melanoma
A549 NSCLC = test system: A549 NSCLC
UACC-257 melanoma = test system: UACC-257 melanoma
SW-620 colon = test system: SW-620 colon
HOP-62 NSCLC = test system: HOP-62 NSCLC
SN12C renal = test system: SN12C renal
786-0 renal = test system: 786-0 renal
SK-OV-3 ovarian = test system: SK-OV-3 ovarian
MOLT-4 leukemia = test system: MOLT-4 leukemia
HT29 colon = test system: HT29 colon
OVCAR-8 ovarian = test system: OVCAR-8 ovarian
EKVX NSCLC = test system: EKVX NSCLC
OVCAR-3 ovarian = test system: OVCAR-3 ovarian
IGROV1 ovarian = test system: IGROV1 ovarian
NCI/ADR-RES ovarian = test system: NCI/ADR-RES ovarian
NCI-H522 lung = test system: NCI-H522 lung
SNB-75 CNS = test system: SNB-75 CNS
SK-MEL-2 melanoma = test system: SK-MEL-2 melanoma
SK-MEL-5 melanoma = test system: SK-MEL-5 melanoma
LOX IMVI melanoma = test system: LOX IMVI melanoma
DU-145 prostate = test system: DU-145 prostate
HCT-116 colon = test system: HCT-116 colon
HL-60(TB) leukemia = test system: HL-60(TB) leukemia
MDA-MB-435 = test system: MDA-MB-435
MCF7 breast = test system: MCF7 breast
K-562 leukemia = test system: K-562 leukemia
OVCAR-5 ovarian = test system: OVCAR-5 ovarian
KM12 colon = test system: KM12 colon
SK-MEL-28 melanoma = test system: SK-MEL-28 melanoma
UO-31 renal = test system: UO-31 renal
SNB-19 CNS = test system: SNB-19 CNS
NCI-H226 lung = test system: NCI-H226 lung
A498 renal = test system: A498 renal
RXF 393 renal = test system: RXF 393 renal
BT-549 breast = test system: BT-549 breast
HCC-2998 colon = test system: HCC-2998 colon
TK-10 renal = test system: TK-10 renal
U251 CNS = test system: U251 CNS
SF-539 CNS = test system: SF-539 CNS
NCI-H23 lung = test system: NCI-H23 lung
RPMI-8226 leukemia = test system: RPMI-8226 leukemia
CAKI-1 renal = test system: CAKI-1 renal
CCRF-CEM leukemia = test system: CCRF-CEM leukemia

Compound: COc1cc(/C=C2\CN(C)CC3=C2NC(=S)NC3c2cc(OC)c(OC)c(OC)c2)cc(OC)c1OC (centres undefined)
- TGI (SF-295 CNS): > 100000 nM
- TGI (HOP-92 NSCLC): > 100000 nM
- TGI (MDA-N): > 100000 nM
- TGI (MDA-MB-231 breast): > 100000 nM
- TGI (T-47D breast): > 100000 nM
- TGI (M14 melanoma): > 100000 nM
- TGI (NCI-H460 lung): > 100000 nM
- TGI (HS 578T breast): > 100000 nM
- TGI (HCT-15 colon): > 100000 nM
- TGI (SR leukemia): > 100000 nM
- TGI (MALME-3M melanoma): > 100000 nM
- TGI (ACHN renal): > 100000 nM
- TGI (SF-268 CNS): > 100000 nM
- TGI (OVCAR-4 ovarian): > 100000 nM
- TGI (COLO 205 colon): > 100000 nM
- TGI (PC-3 prostate): > 100000 nM
- TGI (UACC-62 melanoma): > 100000 nM
- TGI (A549 NSCLC): > 100000 nM
- TGI (UACC-257 melanoma): > 100000 nM
- TGI (SW-620 colon): > 100000 nM
- TGI (HOP-62 NSCLC): > 100000 nM
- TGI (SN12C renal): > 100000 nM
- TGI (786-0 renal): > 100000 nM
- TGI (SK-OV-3 ovarian): > 100000 nM
- TGI (MOLT-4 leukemia): > 100000 nM
- TGI (HT29 colon): > 100000 nM
- TGI (OVCAR-8 ovarian): > 100000 nM
- TGI (EKVX NSCLC): > 100000 nM
- TGI (OVCAR-3 ovarian): > 100000 nM
- TGI (IGROV1 ovarian): > 100000 nM
- TGI (NCI/ADR-RES ovarian): > 100000 nM
- TGI (NCI-H522 lung): > 100000 nM
- TGI (SNB-75 CNS): > 100000 nM
- TGI (SK-MEL-2 melanoma): > 100000 nM
- TGI (SK-MEL-5 melanoma): 65700 nM
- TGI (LOX IMVI melanoma): > 100000 nM
- TGI (DU-145 prostate): > 100000 nM

Compound: CC(C)(C)[Si](C)(C)OCC1OC(n2cc(I)c(N)nc2=O)C(O[Si](C)(C)C(C)(C)C)C1O[Si](C)(C)C(C)(C)C (centres undefined)
- TGI (SF-295 CNS): 11200 nM
- TGI (HOP-92 NSCLC): 37100 nM
- TGI (MDA-N): 26900 nM
- TGI (MDA-MB-231 breast): 31700 nM
- TGI (M14 melanoma): 16900 nM
- TGI (NCI-H460 lung): 22000 nM
- TGI (HS 578T breast): 36600 nM
- TGI (HCT-15 colon): 39900 nM
- TGI (SR leukemia): 81700 nM
- TGI (MALME-3M melanoma): 34600 nM
- TGI (ACHN renal): 22000 nM
- TGI (SF-268 CNS): 28800 nM
- TGI (COLO 205 colon): 36300 nM
- TGI (PC-3 prostate): 25000 nM
- TGI (UACC-62 melanoma): 23700 nM
- TGI (A549 NSCLC): 20800 nM
- TGI (UACC-257 melanoma): 26700 nM
- TGI (SW-620 colon): > 100000 nM
- TGI (HOP-62 NSCLC): 27600 nM
- TGI (SN12C renal): 26600 nM
- TGI (786-0 renal): 9090 nM
- TGI (SK-OV-3 ovarian): 32800 nM
- TGI (MOLT-4 leukemia): 10600 nM
- TGI (HT29 colon): 20300 nM
- TGI (HCT-116 colon): 24000 nM
- TGI (OVCAR-8 ovarian): 30600 nM
- TGI (EKVX NSCLC): 38400 nM
- TGI (OVCAR-3 ovarian): 24000 nM
- TGI (IGROV1 ovarian): 20600 nM
- TGI (NCI/ADR-RES ovarian): > 100000 nM
- TGI (NCI-H522 lung): 16500 nM
- TGI (SNB-75 CNS): 28000 nM
- TGI (SK-MEL-2 melanoma): 25700 nM
- TGI (SK-MEL-5 melanoma): 23200 nM
- TGI (LOX IMVI melanoma): > 100000 nM
- TGI (DU-145 prostate): 28600 nM

Compound: Cc1ccc(C(=O)Nc2ccc(CN3CCN(C)CC3)c(C(F)(F)F)c2)cc1C#Cc1cnc(N)c2ccccc12
- GI50 (SF-295 CNS): 785 nM
- TGI (SF-295 CNS): 1690 nM
- GI50 (HOP-92 NSCLC): 506 nM
- TGI (HOP-92 NSCLC): 2080 nM
- GI50 (MDA-MB-231 breast): 519 nM
- TGI (MDA-MB-231 breast): 1220 nM
- GI50 (T-47D breast): 861 nM
- TGI (T-47D breast): 2300 nM
- GI50 (HL-60(TB) leukemia): 491 nM
- TGI (HL-60(TB) leukemia): 2410 nM
- GI50 (M14 melanoma): 134 nM
- TGI (M14 melanoma): 701 nM
- GI50 (MDA-MB-435): 214 nM
- TGI (MDA-MB-435): 835 nM
- GI50 (MCF7 breast): 799 nM
- TGI (MCF7 breast): 1610 nM
- GI50 (K-562 leukemia): 5 nM
- TGI (K-562 leukemia): 610 nM
- GI50 (OVCAR-5 ovarian): 609 nM
- TGI (OVCAR-5 ovarian): 1500 nM
- GI50 (NCI-H460 lung): 320 nM
- TGI (NCI-H460 lung): 1080 nM
- GI50 (KM12 colon): 377 nM
- TGI (KM12 colon): 1080 nM
- GI50 (HS 578T breast): 647 nM
- TGI (HS 578T breast): 2070 nM
- GI50 (HCT-15 colon): 142 nM
- TGI (HCT-15 colon): 849 nM
- GI50 (SR leukemia): 134 nM
- TGI (SR leukemia): 2660 nM
- GI50 (MALME-3M melanoma): 248 nM
- TGI (MALME-3M melanoma): 951 nM
- GI50 (ACHN renal): 133 nM
- TGI (ACHN renal): 631 nM
- GI50 (SF-268 CNS): 403 nM
- TGI (SF-268 CNS): 1260 nM
- GI50 (SK-MEL-28 melanoma): 479 nM
- TGI (SK-MEL-28 melanoma): 1150 nM
- GI50 (UO-31 renal): 241 nM
- TGI (UO-31 renal): 886 nM
- GI50 (SNB-19 CNS): 769 nM
- TGI (SNB-19 CNS): 1470 nM
- GI50 (OVCAR-4 ovarian): 219 nM
- TGI (OVCAR-4 ovarian): 1330 nM
- GI50 (COLO 205 colon): 655 nM
- TGI (COLO 205 colon): 1620 nM
- GI50 (PC-3 prostate): 703 nM
- TGI (PC-3 prostate): 1720 nM
- GI50 (NCI-H226 lung): 1160 nM
- TGI (NCI-H226 lung): 6540 nM
- GI50 (UACC-62 melanoma): 565 nM
- TGI (UACC-62 melanoma): 1250 nM
- GI50 (A549 NSCLC): 447 nM
- TGI (A549 NSCLC): 1260 nM
- GI50 (UACC-257 melanoma): 736 nM
- TGI (UACC-257 melanoma): 1730 nM
- GI50 (A498 renal): 310 nM
- TGI (A498 renal): 1300 nM
- GI50 (SW-620 colon): 410 nM
- TGI (SW-620 colon): 1140 nM
- GI50 (RXF 393 renal): 285 nM
- TGI (RXF 393 renal): 1060 nM
- GI50 (HOP-62 NSCLC): 849 nM
- TGI (HOP-62 NSCLC): 2130 nM
- GI50 (SN12C renal): 191 nM
- TGI (SN12C renal): 917 nM
- GI50 (786-0 renal): 435 nM
- TGI (786-0 renal): 1080 nM
- GI50 (SK-OV-3 ovarian): 684 nM
- TGI (SK-OV-3 ovarian): 7900 nM
- GI50 (MOLT-4 leukemia): 224 nM
- TGI (MOLT-4 leukemia): 1280 nM
- GI50 (BT-549 breast): 1930 nM
- TGI (BT-549 breast): 8710 nM
- GI50 (HCC-2998 colon): 738 nM
- TGI (HCC-2998 colon): 1560 nM
- GI50 (TK-10 renal): 562 nM
- TGI (TK-10 renal): 1360 nM
- GI50 (U251 CNS): 348 nM
- TGI (U251 CNS): 1120 nM
- GI50 (HT29 colon): 367 nM
- TGI (HT29 colon): 1410 nM
- GI50 (SF-539 CNS): 729 nM
- TGI (SF-539 CNS): 1410 nM
- GI50 (NCI-H23 lung): 799 nM
- TGI (NCI-H23 lung): 1760 nM
- GI50 (HCT-116 colon): 336 nM
- TGI (HCT-116 colon): 1010 nM
- GI50 (OVCAR-8 ovarian): 476 nM
- TGI (OVCAR-8 ovarian): 2090 nM
- GI50 (EKVX NSCLC): 514 nM
- TGI (EKVX NSCLC): 1280 nM
- GI50 (RPMI-8226 leukemia): 736 nM
- TGI (RPMI-8226 leukemia): 2080 nM
- GI50 (CAKI-1 renal): 328 nM
- TGI (CAKI-1 renal): 1050 nM
- GI50 (OVCAR-3 ovarian): 578 nM
- TGI (OVCAR-3 ovarian): 1350 nM
- GI50 (CCRF-CEM leukemia): 622 nM
- TGI (CCRF-CEM leukemia): 3040 nM
- GI50 (IGROV1 ovarian): 103 nM
- TGI (IGROV1 ovarian): 814 nM
- GI50 (NCI/ADR-RES ovarian): 594 nM
- TGI (NCI/ADR-RES ovarian): 1820 nM
- GI50 (NCI-H522 lung): 465 nM
- TGI (NCI-H522 lung): 1360 nM
- GI50 (SNB-75 CNS): 726 nM
- TGI (SNB-75 CNS): 1520 nM
- GI50 (SK-MEL-2 melanoma): 367 nM
- TGI (SK-MEL-2 melanoma): 1550 nM
- GI50 (SK-MEL-5 melanoma): 835 nM
- TGI (SK-MEL-5 melanoma): 1620 nM
- GI50 (LOX IMVI melanoma): 509 nM
- TGI (LOX IMVI melanoma): 1090 nM
- GI50 (DU-145 prostate): 167 nM
- TGI (DU-145 prostate): 861 nM
